Data set [1] is described as follows: Cytotoxicity in parallel to the 229E CPE assay, without virus infection, CellTiter Glo. The following applies: 229E CC50, without virus infection.
Method: (§1) Reagents and instruments used in this assay include luminescent cell viability assay kit CellTiter Glo (Promega) and Microplate Reader Synergy2 (BioTek).
(§2) The cytotoxicity of compounds was assessed under the same conditions, but without virus infection, in parallel. Cell viability was measured with CellTiter Glo. The antiviral activity and cytotoxicity of compounds were expressed as % Inhibition and % Viability, respectively, and calculated with formulas.
The target in data set [2] is COVID-19 (nCoV-2019, SARS-CoV2) Mpro (Severe acute respiratory syndrome coronavirus 2, UniProt P0DTD1). Kind of data set: COVID-19 (nCoV-2019, SARS-CoV2) Mpro enzymatic assay. Type of data set: biochemical. The following applies: 25 nM Mpro, 25 μM substrate; read-out: COVID-19 Mpro IC50.
The next data set deals with 229E Mpro (Human coronavirus 229E, UniProt P0C6X1). Description: 229E Mpro enzymatic assay (standard methods, SARS-CoV2 Mpro assay given as exemplary). Type of data set: biochemical, human coronavirus (HCov) 229E. In short, it runs like this: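 Run by standard methods, with the SARS-CoV-2 Mpro protocol given as the model: E. coli-expressed C-His6 protease at 25 nM and substrate at 25 μM (Km 13.5 μM). Buffer pH 7.3 with 5 mM TCEP and 0.1% BSA; % inhibition versus controls fitted to variable-slope log(inhibitor)-response for IC50.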
229E Mpro, sequence (P0C6X1 2966-3267): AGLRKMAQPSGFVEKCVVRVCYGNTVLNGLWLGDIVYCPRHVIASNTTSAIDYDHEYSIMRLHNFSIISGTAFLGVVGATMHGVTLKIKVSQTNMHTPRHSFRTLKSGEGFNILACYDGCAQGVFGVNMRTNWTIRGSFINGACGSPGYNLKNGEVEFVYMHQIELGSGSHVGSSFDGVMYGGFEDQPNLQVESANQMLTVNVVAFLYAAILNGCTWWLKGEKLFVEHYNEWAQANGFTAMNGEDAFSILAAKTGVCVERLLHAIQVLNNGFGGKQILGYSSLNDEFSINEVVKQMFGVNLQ

The next data set concerns HCoV 229E. Description: HCoV 229E cytopathic effect (CPE) assay, CellTiter Glo. The class given is cell-based, human coronavirus (HCov) 229E. Particulars: protection of virus-induced CPE.
A further data set has as its system HCov OC43. Kind of data set: HCoV OC43 cytopathic effect (CPE) assay, CellTiter Glo. The class given is cell-based, human coronavirus (HCov) OC43.
Data set [3] deals with cells without virus infection. Kind of data set: Cytotoxicity in parallel to the 229E CPE assay, without virus infection, CellTiter Glo. The following applies: read-out: 229E CC50; without virus infection.
Method: as §1, §2
Setting [4] is: Betacoronavirus 1, OC43, read-out: OC43 IC50 (uM) MEDIAN, median.

The text below walks through data of US20220380347A1, “INHIBITORS OF CYSTEINE PROTEASES AND METHODS OF USE THEREOF” (Pardes Biosciences, Inc., priority 2020, published 2022).

Read-outs that look alike come from different tables or passages of the source.

With `CC(C)(C)c1ccc(N(C(=O)c2cnc[nH]2)C(C(=O)NC2CCCCC2)c2cccnc2)c(C#N)n1` (stereo not shown) [Compound 117], the CC50 in data set [1] is above 30 µM. Also, in data set [2], the IC50 was above 30 µM. Also, the EC50 at 229E Mpro (229E Mpro EC50) and in the data set with HCoV 229E (unidentified human coronavirus) was 2 to 10 µM throughout.
Turning to `CC(C)(C)c1ccc(N(C(=O)[C@H]2COCCN2C#N)C(C(=O)NC2CCCCC2)c2cccnc2)cc1` (single isomer, unassigned) [Compound 202 Isomer 2], the CC50 in data set [1] was above 30 µM. Moreover, the half-inhibitory concentration (IC50) (with HCov OC43 (setting [4]); in data set [2]) was below 2 µM each time. In addition, the concentration giving a half-maximal response (EC50) at 229E Mpro (read-out: 229E Mpro EC50) and with HCoV 229E was below 2 µM throughout.
For `CN1CCN(C#N)C(C(=O)N(c2ccc(C(C)(C)C)cc2)C(C(=O)NC2CCCCC2)c2cccnc2)C1` (single isomer, unassigned) [Compound 217 Isomer 2, N-(4-tert-butylphenyl)-1-cyano-N-[2-(cyclohexylamino)-2-oxo-1-(3-pyridyl)ethyl]-4-methyl-piperazine-2-carboxamide], the cytotoxic concentration (CC50) in data set [1] is above 30 µM. The IC50 in data set [2] was below 2 µM. In addition, the EC50 at 229E Mpro (229E Mpro EC50) and in the data set on HCoV 229E (unidentified human coronavirus) was below 2 µM throughout.
Consider `C[C@@H]1CC[C@H](C(=O)N(c2ccc(C(C)(C)C)cc2)C(C(=O)NC2CCCCC2)c2cccnc2)N1C#N` (single isomer, unassigned) [Compound 244 Isomer 1], for which, in data set [1], the CC50 is above 30 µM. The IC50 in data set [2] lay within 2 to 10 µM. In addition, the 50% effective concentration (EC50) at 229E Mpro (229E Mpro EC50) and in the data set on HCoV 229E (unidentified human coronavirus) was below 2 µM in each case.
Turning to `C[C@@H]1C[C@H](C(=O)N(c2ccc(C(C)(C)C)cc2)C(C(=O)NC2CCCCC2)c2cccnc2)N(C#N)C1` (single isomer, unassigned) [Compound 232 Isomer 2], the CC50 in data set [1] was in the range of 10 to 30 µM. In addition, the IC50 (in the data set on HCov OC43 (setting [4]); in data set [2]) was 2 to 10 µM in each case. Further, the 50% effective concentration (EC50) on 229E Mpro (229E Mpro EC50) and in the data set with HCoV 229E (unidentified human coronavirus) was below 2 µM throughout.
For the molecule `CC(C)(C)c1ccc(N(C(=O)c2c[nH]cn2)C(C(=O)NC2CCCCC2)c2cccnc2C#N)cc1` (stereo not shown) [Compound 100, N-(4-tert-butylphenyl)-N-[1-(2-cyano-3-pyridyl)-2-(cyclohexylamino)-2-oxo-ethyl]-1H-imidazole-5-carboxamide], the half-maximal cytotoxic concentration (CC50) in data set [1] is above 30 µM. Moreover, in data set [2], the 50% inhibitory concentration (IC50) lay in the range of 10 to 30 µM. Also, the EC50 on 229E Mpro (229E Mpro EC50) and with HCoV 229E (unidentified human coronavirus) was 2 to 10 µM throughout.
In turn, `CC(C)(C)c1ccc(N(C(=O)c2nsnc2Cl)C(C(=O)NC2CCCCC2)c2cccnc2)cc1` (stereo not shown) [Compound 123, N-(4-(tert-butyl)phenyl)-4-chloro-N-(2-(cyclohexylamino)-2-oxo-1-(pyridin-3-yl)ethyl)-1,2,5-thiadiazole-3-carboxamide] registered a CC50 in data set [1] above 30 µM. The concentration for half-maximal inhibition (IC50) in data set [2] was below 2 µM. Also, the concentration for a half-maximal effect (EC50) on 229E Mpro (229E Mpro EC50) and with HCoV 229E (unidentified human coronavirus) was below 2 µM each time.
In data set [1], `CC(C)(C)c1ccc(N(C(=O)[C@H]2C[C@@H](O)CN2C#N)C(C(=O)NC2CCCCC2)c2cccnc2)cc1` (single isomer, unassigned) [Compound 254 Isomer 2] yielded a CC50 above 30 µM. Also, the half-inhibitory concentration (IC50) (in the data set on HCov OC43 (setting [4]); in data set [2]) was below 2 µM in each case. Besides, the EC50 at 229E Mpro (read-out: 229E Mpro EC50) is below 2 µM.
Molecule `CC(C)(C)c1ccc(C(C(=O)c2cnc[nH]2)C(C(=O)NC2CCCCC2)c2nccnc2C#N)cc1` (stereo not shown) [Compound 105] showed a CC50 in data set [1] above 30 µM. Moreover, the IC50 in data set [2] is above 30 µM. Further, the EC50 on 229E Mpro (229E Mpro EC50) fell in the range of 10 to 30 µM; in the data set with HCoV 229E (unidentified human coronavirus) it was 2 to 10 µM.
In data set [1], `Cc1nnsc1C(C(=O)NC1CCCCC1)N(C(=O)c1cnc[nH]1)c1ccc(C(C)(C)C)cc1` (stereo not shown) [Compound 109] had a CC50 above 30 µM. For the same molecule, in data set [2], the half-maximal inhibitory concentration (IC50) is above 30 µM. The EC50 at 229E Mpro (229E Mpro EC50) and with HCoV 229E (unidentified human coronavirus) was 2 to 10 µM throughout.
`CC(C)(C)c1ccc(N(C(=O)c2nccnc2C#N)C(C(=O)NC2CCCCC2)c2cccnc2)cc1` (stereo not shown) [Compound 124, N-(4-(tert-butyl)phenyl)-3-cyano-N-(2-(cyclohexylamino)-2-oxo-1-(pyridin-3-yl)ethyl)pyrazine-2-carboxamide]: the CC50 in data set [1] is above 30 µM. Also, in data set [2], the IC50 is above 30 µM. Besides, the EC50 at 229E Mpro (229E Mpro EC50) and in the data set on HCoV 229E (unidentified human coronavirus) was 10 to 30 µM in each case.
For `COc1cncc(C(C(=O)NC2CCCCC2)N(C(=O)[C@H]2C[C@@H](O)CN2C#N)c2ccc(C(C)(C)C)cc2)c1` (single isomer, unassigned) [679 Isomer 2], the 50% cytotoxic concentration (CC50) in data set [3] lay in the range of 10 to 30 µM. The concentration for half-maximal inhibition (IC50) fell in the range of 2 to 10 µM with HCov OC43 (read-out: OC43 IC50 (uM) MEDIAN, median) and 10 to 30 µM in data set [2]. Moreover, the EC50 on 229E Mpro (read-out: 229E Mpro EC50) was below 2 µM; in the data set with HCoV 229E it was 2 to 10 µM.
In turn, `CC(C)(C)c1ccc(N(C(=O)c2cnc[nH]2)C(C(=O)NC2CCCCC2)c2cncnc2C#N)cc1` (stereo not shown) [Compound 103, N-(4-(tert-butyl)phenyl)-N-(1-(4-cyanopyrimidin-5-yl)-2-(cyclohexylamino)-2-oxoethyl)-1H-imidazole-5-carboxamide] gave a half-maximal cytotoxic concentration (CC50) in data set [1] above 30 µM. Further, the IC50 in data set [2] was in the range of 10 to 30 µM. Further, the figures for the concentration giving a half-maximal response (EC50) on 229E Mpro (229E Mpro EC50) and in the data set with HCoV 229E (unidentified human coronavirus) were 2 to 10 µM and 10 to 30 µM, respectively.
Molecule `CC(C)(C)c1ccc(N(C(=O)C2CN(C#N)C2)C(C(=O)NC2CCCCC2)c2cccnc2)cc1` (stereo not shown) [Compound 125, N-(4-tert-butylphenyl)-1-cyano-N-[2-(cyclohexylamino)-2-oxo-1-(3-pyridyl)ethyl]azetidine-3-carboxamide] came in with a CC50 in data set [1] of 10 to 30 µM. Also, the IC50 in data set [2] was 10 to 30 µM. Moreover, the EC50 at 229E Mpro (229E Mpro EC50) lay in the range of 10 to 30 µM; in the data set with HCoV 229E (unidentified human coronavirus), 2 to 10 µM.
As for `COc1cncc(C(C(=O)NC2CCCCC2)N(C(=O)[C@H]2C[C@@H](O)CN2C#N)c2ccc(C(C)(C)C)cc2)c1` (single isomer, unassigned) [679 Isomer 1], the half-maximal cytotoxic concentration (CC50) in data set [3] is above 30 µM. The IC50 (in the data set with HCov OC43 (setting [4]); in data set [2]) was below 2 µM throughout. The EC50 on 229E Mpro (229E Mpro EC50) and in the data set with HCoV 229E (unidentified human coronavirus) was below 2 µM in each case.
In data set [1], `CC1(C)C[C@H](C(=O)N(c2ccc(C(C)(C)C)cc2)C(C(=O)NC2CCCCC2)c2cccnc2)N(C#N)C1` (single isomer, unassigned) [Compound 268 Isomer 2] had a CC50 of 10 to 30 µM. The IC50 with HCov OC43 (setting [4]) was 2 to 10 µM; in data set [2] it was below 2 µM. Besides, the EC50 at 229E Mpro (229E Mpro EC50) and in the data set with HCoV 229E (unidentified human coronavirus) was below 2 µM in each case.
Turning to `CC(C)(C)c1ccc(N(C(=O)[C@H]2C[C@@H](O)CN2C#N)C(C(=O)NCCN2CCOCC2)c2cccnc2)cc1` (single isomer, unassigned) [587 Isomer 1], the IC50 (in the data set on HCov OC43 (setting [4]); in data set [2]) was below 2 µM each time. The half-maximal effective concentration (EC50) on 229E Mpro (229E Mpro EC50) and in the data set with HCoV 229E (unidentified human coronavirus) was below 2 µM each time.
